Oligonucleotides are written 5' to 3', each unit as a sugar letter and its base; * is a phosphorothioate linkage, no mark a phosphodiester; rarer units and linkages stand in square brackets, end groups in braces. Plain capitals give the bases only. d = 2'-deoxy (DNA)
Assays:
Assay type in all cases: cell-based, human
[1] = system: Hela S3 cells; experiment: Relative colony forming efficiency, lipofectin +/- oligonucleotide 4 hours; conditions: Hela S3 cervix carcinoma cells; averages of 2-8 determinations
Description: Colony forming efficiency was determined using standard protocols. Briefly, the cells were cultured for 24 hours at 37° C. in growth medium with 10% fetal bovine serum. The cells were washed in 5 ml phosphate buffered saline, pH 7.2, once prior to lipofectin +/−oligonucleotide treatment.
The test oligonucleotides were added to cell cultures in the presence of 2.5 μg of DOTMA/DOPE (Lipofectin; Life Technologies, Inc.) for four hours. The oligonucleotide was tested at 0.2 μM unless otherwise indicated. Controls were the cultures treated with lipofectin but without the oligonucleotide. After 4 hours the medium containing the oligonucleotide was removed and washed with 5 ml of growth medium. The cells were then cultured in growth medium containing 10% fetal bovine serum for seven to ten days. Surviving cells were visualized by methylene blue staining, and colonies were scored. In some experiments cell aliquots were removed from the culture and viability was determined using the trypan blue exclusion test. Results were analyzed as percent of surviving cells compared to control cells.
AS-II-336-20 was tested for the ability to inhibit the proliferation of human tumour cells (Hela). Hela S3 cells (American Type Culture Collection, Rockville, Md., ATCC), and a Hela cell line (Hela 1 mM) previously selected for resistance to the antitumour agent, hydroxyurea, were tested (see results in Table 11). Two experiments were undertaken with Hela S3 cells. […] The same experiment was repeated with the Hela 1 mM cell line and with varying concentrations of the antisense construct AS-II-336-20 (see results in Table 11) with similar results, […] was an effective concentration for inhibiting colony formation.
To test the antisense effects of many of these sequences as phosphorthioate deoxyribonucleotides, they were examined in relative colony forming experiments conducted as described in Example 16 with a series of human tumour cell lines. The results (shown as % inhibition of colony forming ability) obtained with cancer cells derived from the bladder, breast, lung, colon, pancreas, prostate, liver and cervix, are shown in Table 13. The specific cell lines employed are as follows:
T24=bladder cell carcinoma HCT116=colon cell carcinoma A549=lung cell carcinoma MDA-MB-231=breast cell adenocarcinoma […]=pancreatic cell carcinoma PC-3=prostrate cell adenocarcinoma HepG2=hepatocellular carcinoma HeLaS3=cells isolated from a carcinoma of the cervix T-47D=breast ductal carcinoma H596=lung adenosquamous carcinoma cells Colo320=colon cell adenocarcinoma

[2] = system: A549 lung cell carcinoma; experiment: Relative colony forming efficiency (Example 17, Table 13); conditions: averages of 2-8 determinations
Procedure, shortened: (§1)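 Antisense phosphorothioates are tested at 0.2 μM unless stated, transfected with DOTMA/DOPE (2.5 μg) for four hours. Colony counts after methylene blue staining give percent inhibition versus vehicle-lipid controls.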

[3] = system: HCT116 colon cell carcinoma; experiment: as above; conditions: averages of 2-8 determinations
Procedure, shortened: as §1

[4] = system: HepG2 hepatocellular carcinoma; experiment: as above; conditions: averages of 2-8 determinations
Procedure, shortened: as §1

[5] = system: MDA PaCa-2 pancreatic cell carcinoma; experiment: as above; conditions: MIA PaCa-2 pancreatic cell carcinoma; averages of 2-8 determinations
Procedure, shortened: as §1

[6] = system: MDA-MB-231 breast cell adenocarcinoma; experiment: as above; conditions: averages of 2-8 determinations
Procedure, shortened: as §1

[7] = system: PC-3 prostrate cell adenocarcinoma; experiment: as above; conditions: averages of 2-8 determinations
Procedure, shortened: as §1

[8] = system: T-47D breast ductal carcinoma; experiment: as above; conditions: averages of 2-8 determinations
Procedure, shortened: as §1

[9] = system: T24 bladder cell carcinoma; experiment: as above; conditions: averages of 2-8 determinations
Procedure, shortened: as §1

Row | Sequence | Reduced relative colony forming efficiency, Hela S3 (% inhibition of colony forming ability) [1] [%] | Reduced relative colony forming efficiency, A549 (% inhibition of colony forming ability) [2] [%] | Reduced relative colony forming efficiency, HCT116 (% inhibition of colony forming ability) [3] [%] | Reduced relative colony forming efficiency, HepG2 (% inhibition of colony forming ability) [4] [%] | Reduced relative colony forming efficiency, MIA PaCa-2 (% inhibition of colony forming ability) [5] [%] | Reduced relative colony forming efficiency, MDA-MB-231 (% inhibition of colony forming ability) [6] [%] | Reduced relative colony forming efficiency, PC-3 (% inhibition of colony forming ability) [7] [%] | Reduced relative colony forming efficiency, T-47D (% inhibition of colony forming ability) [8] [%] | Reduced relative colony forming efficiency, T24 (% inhibition of colony forming ability) [9] [%]
1 | AAAAATCAGCCAAGTAAGGG (antisense dA*dA*dA*dA*dA*dT*dC*dA*dG*dC*dC*dA*dA*dG*dT*dA*dA*dG*dG*dG) [AS-II-1381-20] | 80.53 | 86.02 | 89.48 | 62.34 | 73.77 | 44.41 | 75 | 93.62 | 71.37
2 | AAAACCTTGCTAAAACCCAG (antisense dA*dA*dA*dA*dC*dC*dT*dT*dG*dC*dT*dA*dA*dA*dA*dC*dC*dC*dA*dG) [AS-II-1197-20] | 82.68 | 89.15 | 84.85 | 76.32 | 70.68 | 50.35 | 74.4 | 81.95 | 90.3
3 | CCCAGTTCCAGCATAAGTCT (antisense dC*dC*dC*dA*dG*dT*dT*dC*dC*dA*dG*dC*dA*dT*dA*dA*dG*dT*dC*dT) [AS-II-1182-20] | 90.61 | 80.06 | 88.13 | 92.23 | 84.72 |  | 92.76 | 92.41 | 94.51
4 | CTGCTTTAGTTTTCGGCTCC (antisense dC*dT*dG*dC*dT*dT*dT*dA*dG*dT*dT*dT*dT*dC*dG*dG*dC*dT*dC*dC) [AS-II-362-20] | 45.69 | 61.81 | 62.81 | 95.78 | 34.2 | 85.83 | 75.78 |  | 89.63
5 | GCTCCCACATATGAAAACTC (antisense dG*dC*dT*dC*dC*dC*dA*dC*dA*dT*dA*dT*dG*dA*dA*dA*dA*dC*dT*dC) [AS-II-2229A-20] | 63.15 | 69.72 | 93.01 | 73.26 | 33.61 |  | 89.58 | 58.82 | 50.34
6 | GTCTCTCCTCCGATGGTTTG [AS-II-1040-20] | 71.87 | 85.82 | 70.08 | 77.78 | 43.52 |  | 40.08 | 64.76 | 59.49
7 | TCAGAGGGGGCAGAGAATCC (antisense dT*dC*dA*dG*dA*dG*dG*dG*dG*dG*dC*dA*dG*dA*dG*dA*dA*dT*dC*dC) [AS-II-2044-20] | 24.55 | 25.55 | 49.34 | 62.35 | 24.48 | 19.11 | 74.48 |  | 53.63
8 | TCCTCGGCGGTCCAAA (antisense dT*dC*dC*dT*dC*dG*dG*dC*dG*dG*dT*dC*dC*dA*dA*dA) [AS-II-496-16] | 52.21 | 74.45 | 70.85 | 54.8 |  | 45.8 | 88.84 | 10.79 | 78.48
9 | TCTGCCTTCTTCTTGACACA (antisense dT*dC*dT*dG*dC*dC*dT*dT*dC*dT*dT*dC*dT*dT*dG*dA*dC*dA*dC*dA) [AS-II-798-20] | 56.42 | 70.49 | 64.46 | 89.46 | 34.65 | 83.92 | 83.21 |  | 84.72
10 | TTCTCTTACTCTCTCCTCCG (antisense dT*dT*dC*dT*dC*dT*dT*dA*dC*dT*dC*dT*dC*dT*dC*dC*dT*dC*dC*dG) [AS-II-1048-20] | 39.19 | 65.67 | 42.63 | 77.56 | 33.4 | 66.88 | 84.38 |  | 40.32

From US20080311126A1, “Antisense Oligonucleotides Directed to Ribonucleotide Reducatase R2 and Uses Thereof in Combination Therapies for the Treatment of Cancer” (Genesense Technologies, Inc, priority 2004, published 2008)
